The structures appear in SMILES notation.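 Tested at 5 concentrations; 48 h exposure; 96-well plates; endpoints linearly interpolated, else capped at highest concentration. TGI marks complete inhibition of growth.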

The results in this text go back to PubChem BioAssay (NCI).

The subject of the first assay is SK-MEL-28 melanoma. As to the kind of experiment: inhibition of tumour cell growth, NCI panel, 48 h.
Consider `N#Cc1c(N)nc(-c2ccc(Cl)cc2)c2c1-c1ccccc1S(=O)(=O)CC2`, for which the TGI is more than 100 µM.

`O=C1/C(=C/c2ccccc2O)N=C(c2ccccc2)N1C1Nc2cc3c(cc2S1)NC(N1C(=O)/C(=C/c2ccccc2O)N=C1c1ccccc1)S3` (stereo not drawn) returned a TGI of more than 100 µM.

On to `CCOC(CN(C)C(=O)Nc1cccc2ccccc12)OCC`, for which the TGI was more than 10 µM.

As for `O=c1oc2ccc3ccccc3c2cc1-c1cn2ccccc2n1`, the TGI is more than 100 µM.

The test system of another assay is MDA-MB-435. As to the kind of experiment: inhibition of tumour cell growth, NCI panel, 48 h.
The compound `N#Cc1c(N)nc(-c2ccc(Cl)cc2)c2c1-c1ccccc1S(=O)(=O)CC2` gave a TGI of more than 100 µM.

On to `O=C1/C(=C/c2ccccc2O)N=C(c2ccccc2)N1C1Nc2cc3c(cc2S1)NC(N1C(=O)/C(=C/c2ccccc2O)N=C1c1ccccc1)S3` (stereo not drawn), for which the TGI is more than 100 µM.

Compound `CCOC(CN(C)C(=O)Nc1cccc2ccccc12)OCC` gave a TGI of more than 10 µM.

`O=c1oc2ccc3ccccc3c2cc1-c1cn2ccccc2n1` displayed a TGI of more than 100 µM.

A further assay deals with NCI-H23 lung. The experiment in a line: inhibition of tumour cell growth, NCI panel, 48 h.
Compound `N#Cc1c(N)nc(-c2ccc(Cl)cc2)c2c1-c1ccccc1S(=O)(=O)CC2` had a TGI of more than 100 µM.

Turning to `O=C1/C(=C/c2ccccc2O)N=C(c2ccccc2)N1C1Nc2cc3c(cc2S1)NC(N1C(=O)/C(=C/c2ccccc2O)N=C1c1ccccc1)S3` (stereo not drawn), the TGI is more than 100 µM.

In turn, `CCOC(CN(C)C(=O)Nc1cccc2ccccc12)OCC` returned a TGI of more than 10 µM.

`O=c1oc2ccc3ccccc3c2cc1-c1cn2ccccc2n1`: the TGI is more than 100 µM.

Another assay has as its system KM12 colon. The experiment in a line: inhibition of tumour cell growth, NCI panel, 48 h.
`N#Cc1c(N)nc(-c2ccc(Cl)cc2)c2c1-c1ccccc1S(=O)(=O)CC2` came in with a TGI of more than 100 µM.

For the compound `O=C1/C(=C/c2ccccc2O)N=C(c2ccccc2)N1C1Nc2cc3c(cc2S1)NC(N1C(=O)/C(=C/c2ccccc2O)N=C1c1ccccc1)S3` (stereo not drawn), the TGI is more than 100 µM.

On to `CCOC(CN(C)C(=O)Nc1cccc2ccccc12)OCC`, for which the TGI is more than 10 µM.

As to `O=c1oc2ccc3ccccc3c2cc1-c1cn2ccccc2n1`, the TGI was more than 100 µM.

Another assay deals with NCI-H522 lung. The experiment in a line: inhibition of tumour cell growth, NCI panel, 48 h.
`N#Cc1c(N)nc(-c2ccc(Cl)cc2)c2c1-c1ccccc1S(=O)(=O)CC2` had a TGI of more than 100 µM.

Consider `O=C1/C(=C/c2ccccc2O)N=C(c2ccccc2)N1C1Nc2cc3c(cc2S1)NC(N1C(=O)/C(=C/c2ccccc2O)N=C1c1ccccc1)S3` (stereo not drawn), for which the TGI is more than 100 µM.

`CCOC(CN(C)C(=O)Nc1cccc2ccccc12)OCC`: the TGI is more than 10 µM.

As to `O=c1oc2ccc3ccccc3c2cc1-c1cn2ccccc2n1`, the TGI is more than 100 µM.

Another assay relates to CAKI-1 renal. As to the kind of experiment: inhibition of tumour cell growth, NCI panel, 48 h.
Regarding `N#Cc1c(N)nc(-c2ccc(Cl)cc2)c2c1-c1ccccc1S(=O)(=O)CC2`, the TGI is more than 100 µM.

For the compound `O=C1/C(=C/c2ccccc2O)N=C(c2ccccc2)N1C1Nc2cc3c(cc2S1)NC(N1C(=O)/C(=C/c2ccccc2O)N=C1c1ccccc1)S3` (stereo not drawn), the TGI is more than 100 µM.

With `CCOC(CN(C)C(=O)Nc1cccc2ccccc12)OCC`, the TGI is more than 10 µM.

In turn, `O=c1oc2ccc3ccccc3c2cc1-c1cn2ccccc2n1` showed a TGI of 75.1 µM.

For another assay, the system named is BT-549 breast. As to the kind of experiment: inhibition of tumour cell growth, NCI panel, 48 h.
Consider `N#Cc1c(N)nc(-c2ccc(Cl)cc2)c2c1-c1ccccc1S(=O)(=O)CC2`, for which the TGI was more than 100 µM.

`O=c1oc2ccc3ccccc3c2cc1-c1cn2ccccc2n1` showed a TGI of more than 100 µM.

The subject of another assay is 786-0 renal. The experiment in a line: inhibition of tumour cell growth, NCI panel, 48 h.
Take `N#Cc1c(N)nc(-c2ccc(Cl)cc2)c2c1-c1ccccc1S(=O)(=O)CC2`: the TGI was more than 100 µM.

Compound `O=C1/C(=C/c2ccccc2O)N=C(c2ccccc2)N1C1Nc2cc3c(cc2S1)NC(N1C(=O)/C(=C/c2ccccc2O)N=C1c1ccccc1)S3` (stereo not drawn) gave a TGI of more than 100 µM.

For `CCOC(CN(C)C(=O)Nc1cccc2ccccc12)OCC`, the TGI was more than 10 µM.

As to `O=c1oc2ccc3ccccc3c2cc1-c1cn2ccccc2n1`, the TGI was more than 100 µM.

The test system of another assay is OVCAR-4 ovarian. The experiment in a line: inhibition of tumour cell growth, NCI panel, 48 h.
Regarding `N#Cc1c(N)nc(-c2ccc(Cl)cc2)c2c1-c1ccccc1S(=O)(=O)CC2`, the TGI was more than 100 µM.

With `O=C1/C(=C/c2ccccc2O)N=C(c2ccccc2)N1C1Nc2cc3c(cc2S1)NC(N1C(=O)/C(=C/c2ccccc2O)N=C1c1ccccc1)S3` (stereo not drawn), the TGI is more than 100 µM.

For `CCOC(CN(C)C(=O)Nc1cccc2ccccc12)OCC`, the TGI is more than 10 µM.

For the next assay, the system named is HCT-15 colon. The experiment in a line: inhibition of tumour cell growth, NCI panel, 48 h.
Compound `N#Cc1c(N)nc(-c2ccc(Cl)cc2)c2c1-c1ccccc1S(=O)(=O)CC2` yielded a TGI of more than 100 µM.

As for `O=C1/C(=C/c2ccccc2O)N=C(c2ccccc2)N1C1Nc2cc3c(cc2S1)NC(N1C(=O)/C(=C/c2ccccc2O)N=C1c1ccccc1)S3` (stereo not drawn), the TGI was more than 100 µM.

Compound `CCOC(CN(C)C(=O)Nc1cccc2ccccc12)OCC` returned a TGI of more than 10 µM.

On to `O=c1oc2ccc3ccccc3c2cc1-c1cn2ccccc2n1`, for which the TGI was more than 100 µM.

For the next assay, the system named is SW-620 colon. As to the kind of experiment: inhibition of tumour cell growth, NCI panel, 48 h.
Take `N#Cc1c(N)nc(-c2ccc(Cl)cc2)c2c1-c1ccccc1S(=O)(=O)CC2`: the TGI was more than 100 µM.

Compound `O=C1/C(=C/c2ccccc2O)N=C(c2ccccc2)N1C1Nc2cc3c(cc2S1)NC(N1C(=O)/C(=C/c2ccccc2O)N=C1c1ccccc1)S3` (stereo not drawn) displayed a TGI of more than 100 µM.

For the compound `CCOC(CN(C)C(=O)Nc1cccc2ccccc12)OCC`, the TGI was more than 10 µM.

The compound `O=c1oc2ccc3ccccc3c2cc1-c1cn2ccccc2n1` showed a TGI of more than 100 µM.

A further assay deals with SK-OV-3 ovarian. The experiment in a line: inhibition of tumour cell growth, NCI panel, 48 h.
In turn, `O=C1/C(=C/c2ccccc2O)N=C(c2ccccc2)N1C1Nc2cc3c(cc2S1)NC(N1C(=O)/C(=C/c2ccccc2O)N=C1c1ccccc1)S3` (stereo not drawn) came in with a TGI of more than 100 µM.

The compound `CCOC(CN(C)C(=O)Nc1cccc2ccccc12)OCC` had a TGI of more than 10 µM.

`O=c1oc2ccc3ccccc3c2cc1-c1cn2ccccc2n1`: the TGI is more than 100 µM.

The test system of the next assay is T-47D breast. As to the kind of experiment: inhibition of tumour cell growth, NCI panel, 48 h.
As to `N#Cc1c(N)nc(-c2ccc(Cl)cc2)c2c1-c1ccccc1S(=O)(=O)CC2`, the TGI is more than 100 µM.

As for `O=C1/C(=C/c2ccccc2O)N=C(c2ccccc2)N1C1Nc2cc3c(cc2S1)NC(N1C(=O)/C(=C/c2ccccc2O)N=C1c1ccccc1)S3` (stereo not drawn), the TGI was more than 100 µM.

`CCOC(CN(C)C(=O)Nc1cccc2ccccc12)OCC` gave a TGI of more than 10 µM.

In the case of `O=c1oc2ccc3ccccc3c2cc1-c1cn2ccccc2n1`, the TGI was more than 100 µM.

In a further assay the test system is HL-60(TB) leukemia. The experiment in a line: inhibition of tumour cell growth, NCI panel, 48 h.
`O=C1/C(=C/c2ccccc2O)N=C(c2ccccc2)N1C1Nc2cc3c(cc2S1)NC(N1C(=O)/C(=C/c2ccccc2O)N=C1c1ccccc1)S3` (stereo not drawn): the TGI is more than 100 µM.

For the compound `CCOC(CN(C)C(=O)Nc1cccc2ccccc12)OCC`, the TGI was more than 10 µM.

The compound `O=c1oc2ccc3ccccc3c2cc1-c1cn2ccccc2n1` came in with a TGI of more than 100 µM.

A further assay relates to TK-10 renal. The experiment in a line: inhibition of tumour cell growth, NCI panel, 48 h.
Compound `N#Cc1c(N)nc(-c2ccc(Cl)cc2)c2c1-c1ccccc1S(=O)(=O)CC2` registered a TGI of more than 100 µM.

`O=C1/C(=C/c2ccccc2O)N=C(c2ccccc2)N1C1Nc2cc3c(cc2S1)NC(N1C(=O)/C(=C/c2ccccc2O)N=C1c1ccccc1)S3` (stereo not drawn): the TGI is more than 100 µM.
